Results published in PMC6013238, “Development of novel NEMO-binding domain mimetics for inhibiting IKK/NF-κB activation” (PLoS Biology, 2018).

Target: T1, GST-NEMO and FLAG-IKKβ (Homo sapiens, UniProt Q9Y6K9)
T1 construct: Recombinant full-length NEMO tagged with GST at the N-terminus; purchased SignalChem (GST-NEMO); Origene (IKKβ-FLAG)
Assay: IKKβ-NEMO binding assay (GST pull-down, recombinant proteins)
Settings: at 12.5 μM; 15 nM each protein
Procedure: To determine whether the novel NBD mimetics target the NEMO-IKKβ interaction in vivo, co-immunoprecipitations were performed using extracts from Raw 264.7 macrophages (Fig 5A). […] No interaction between NEMO and TNF receptor-associated factor 2 (TRAF2) or IκBα was observed under these conditions. […] The levels of phosphorylated IKK complex, IκBα, and p65 in response to TNF-α and LPS were all reduced by SR12343 (Fig 5D & 5E). […] However, there were no changes in the levels of phospho-c-Jun N-terminal kinase (p-JNK), p-p38MAPK, total JNK, and p38MAPK by treatment with SR12343 (150 μM) in response to TNF-α or LPS stimulation (Fig 5G & 5H). […]
(A) Co-IP analysis detecting the IKKβ/NEMO interaction. […] NEMO-binding products were then analyzed for levels of IKKβ, IKKα, TRAF2, and IκBα (negative control), and levels of NEMO were used as a loading control (left panel). […] The levels of IKKβ-FLAG binding to GST-NEMO were determined by western blot analysis with GST-NEMO used as a loading control. […] Cell lysates were analyzed for activity of the IKK/NF-κB signaling pathway including activation of IKK complex, IκBα, and p65. […] Cell lysates were harvested and analyzed for activation of noncanonical NF-κB signaling, the processing of p100 to p52. […]

T1 sequence (Q9Y6K9 whole entry): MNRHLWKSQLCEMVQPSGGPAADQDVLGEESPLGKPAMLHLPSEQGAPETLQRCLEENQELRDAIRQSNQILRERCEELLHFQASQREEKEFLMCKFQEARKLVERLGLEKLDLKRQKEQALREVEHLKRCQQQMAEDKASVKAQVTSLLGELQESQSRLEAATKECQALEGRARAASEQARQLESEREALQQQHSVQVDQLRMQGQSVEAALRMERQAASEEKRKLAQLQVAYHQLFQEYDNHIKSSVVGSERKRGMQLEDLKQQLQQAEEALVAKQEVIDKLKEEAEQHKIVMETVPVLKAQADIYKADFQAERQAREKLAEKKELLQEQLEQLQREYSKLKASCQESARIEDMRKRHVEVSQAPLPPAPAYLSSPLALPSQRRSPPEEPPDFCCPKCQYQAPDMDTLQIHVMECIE

Compound: O=C(CNc1ccc(Cl)cn1)NCCc1cccc(Br)c1 [SR12343]
- Disruption of interaction between GST-NEMO and FLAG-IKKβ: able to disrupt
